Source: paper PMC6102129, “Epigallocatechin-3-gallate remodels apolipoprotein A-I amyloid fibrils into soluble oligomers in the presence of heparin” (The Journal of Biological Chemistry, 2018)

Biological target: T1, monomeric apoA-I (Homo sapiens, UniProt P02647)
T1 construct: gene APOA1; mature apoA-I residues 3-243 from E. coli BL21(DE3), His tag removed by formic acid at Asp2-Pro3; soluble, lipid-free, monomeric, pH 7
Experiment: WaterLOGSY NMR
Assay type: binding
Settings: 36 μM apoA-I, phosphate buffer pH 7, no heparin

T1 sequence (P02647 27-267): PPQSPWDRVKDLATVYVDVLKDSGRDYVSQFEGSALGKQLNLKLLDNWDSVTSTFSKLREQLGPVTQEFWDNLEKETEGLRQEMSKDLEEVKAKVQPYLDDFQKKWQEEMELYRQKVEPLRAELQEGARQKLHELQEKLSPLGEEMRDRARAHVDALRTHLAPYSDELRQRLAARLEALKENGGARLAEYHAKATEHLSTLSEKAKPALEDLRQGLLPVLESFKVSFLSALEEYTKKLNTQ

O=C(O[C@@H]1Cc2c(O)cc(O)cc2O[C@@H]1c1cc(O)c(O)c(O)c1)c1cc(O)c(O)c(O)c1 [compound 5, EGCG]
WaterLOGSY NMR: peaks from EGCG broaden and take the opposite sign to the TSP peak
